Laboratory results taken from patent publication US11034650B2, “Compounds useful for treating a Mannheimia haemolytica or Histophilus somni infection” (Intervet Inc., priority 2016, dated 2021).
In brackets after ≈: the same amount, converted by molar mass.

Tests used:
Type in all cases: cell-based
[1] = test system: Mannheimia haemolytica MH 13065 (XB0446-6003.9, BRD field isolate); assay: MIC, broth-microdilution (CLSI VET01-A4), strain MH 13065; details: Mannheimia haemolytica strain MH 13065, broth-microdilution; unit assumed
How it was run: (§1)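 MIC is the lowest compound concentration showing no visible growth by eye, read from doubling-dilution microdilution trays. Method followed CLSI VET01-A4, with interpretation under CLSI VET01-S3.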

[2] = test system: Pasteurella multocida PM 12080 (IV102277-0093, BRD field isolate); assay: MIC, broth-microdilution (CLSI VET01-A4), strain PM 12080; details: Pasteurella multocida strain PM 12080, broth-microdilution; unit assumed
How it was run: as §1

[3] = test system: Mannheimia haemolytica MH 6374 (ATCC 33396, reference strain); assay: MIC, broth-microdilution (CLSI VET01-A4), strain MH 6374; details: Mannheimia haemolytica strain MH 6374, broth-microdilution; unit assumed
How it was run: as §1

[4] = test system: Pasteurella multocida PM 6391 (ATCC 43137, reference strain); assay: MIC, broth-microdilution (CLSI VET01-A4), strain PM 6391; details: Pasteurella multocida strain PM 6391, broth-microdilution; unit assumed
How it was run: as §1

[5] = test system: Mannheimia haemolytica MH 6357 (M7/2, reference strain, cattle infection strain); assay: MIC, broth-microdilution (CLSI VET01-A4), strain MH 6357; details: Mannheimia haemolytica strain MH 6357, broth-microdilution; unit assumed
How it was run: as §1

[6] = test system: Pasteurella multocida PM 6267 (P 2225 (L386), reference strain, mouse infection strain); assay: MIC, broth-microdilution (CLSI VET01-A4), strain PM 6267; details: Pasteurella multocida strain PM 6267, broth-microdilution; unit assumed
How it was run: as §1

[7] = test system: Mannheimia haemolytica MH 10720 (154, BRD field isolate); assay: MIC, broth-microdilution (CLSI VET01-A4), strain MH 10720; details: Mannheimia haemolytica strain MH 10720, broth-microdilution; unit assumed
How it was run: as §1

[8] = test system: Mannheimia haemolytica MH 12587 (1071, BRD field isolate, macrolide-resistance: erm+, E+); assay: MIC, broth-microdilution (CLSI VET01-A4), strain MH 12587; details: Mannheimia haemolytica strain MH 12587, broth-microdilution; unit assumed
How it was run: as §1

[9] = test system: Mannheimia haemolytica MH 13093 (XB0472-6014.1, BRD field isolate); assay: MIC, broth-microdilution (CLSI VET01-A4), strain MH 13093; details: Mannheimia haemolytica strain MH 13093, broth-microdilution; unit assumed
How it was run: as §1

[10] = test system: Pasteurella multocida PM 10775 (080130003051, BRD field isolate); assay: MIC, broth-microdilution (CLSI VET01-A4), strain PM 10775; details: Pasteurella multocida strain PM 10775, broth-microdilution; unit assumed
How it was run: as §1

Structure (SMILES) | MIC PM 12080 [2] [µg/mL] | MIC PM 6391 [4] [µg/mL] | MIC PM 6267 [6] [µg/mL] | MIC PM 10775 [10] [µg/mL] | MIC MH 13065 [1] [µg/mL] | MIC MH 6374 [3] [µg/mL] | MIC MH 6357 [5] [µg/mL] | MIC MH 10720 [7] [µg/mL] | MIC MH 12587 [8] [µg/mL] | MIC MH 13093 [9] [µg/mL]
CC(C)([C@H](NC(=O)c1ccc(C#Cc2ccc(CNC3CCCC3)cc2)cc1)C(=O)NO)S(C)(=O)=O [Compound 264] | 0.4 (≈ 0.782 µM) | 0.8 (≈ 1.56 µM) | 0.2 (≈ 0.391 µM) | ≤ 0.1 | 6.3 (≈ 12.3 µM) | 12.5 (≈ 24.4 µM) | 12.5 (≈ 24.4 µM) | 1.6 (≈ 3.13 µM) | 12.5 (≈ 24.4 µM) | 6.3 (≈ 12.3 µM)
CC(C)([C@H](NC(=O)c1ccc(C#Cc2ccc(CNCc3ccco3)cc2)cc1)C(=O)NO)S(C)(=O)=O [C.270] | ≤ 0.1 | ≤ 0.1 | ≤ 0.1 | ≤ 0.1 | 0.2 (≈ 0.382 µM) | 0.2 (≈ 0.382 µM) | 0.8 (≈ 1.53 µM) | ≤ 0.1 | 0.8 (≈ 1.53 µM) | 0.4 (≈ 0.764 µM)
CC(C)([C@H](NC(=O)c1ccc(C#Cc2ccc(CNC3CC3)nc2)cc1)C(=O)NO)S(C)(=O)=O [Compound 348] | ≤ 0.1 | ≤ 0.1 | 0.8 (≈ 1.65 µM) | ≤ 0.1 | 0.8 (≈ 1.65 µM) | 0.8 (≈ 1.65 µM) | 0.8 (≈ 1.65 µM) | ≤ 0.1 | 3.1 (≈ 6.4 µM) | 0.8 (≈ 1.65 µM)
CSC(C)(C)[C@H](NC(=O)c1ccc(C#Cc2ccc(CNCc3ccnc(Cl)c3)cc2)cc1)C(=O)NO [Compound 248] | 0.8 (≈ 1.49 µM) | 0.8 (≈ 1.49 µM) | 0.4 (≈ 0.745 µM) | 0.2 (≈ 0.372 µM) | 1.6 (≈ 2.98 µM) | 1.6 (≈ 2.98 µM) | 1.6 (≈ 2.98 µM) | 0.4 (≈ 0.745 µM) | 1.6 (≈ 2.98 µM) | 1.6 (≈ 2.98 µM)
CSC(C)(C)[C@H](NC(=O)c1ccc(C#Cc2ccc(CNCc3nccs3)cc2)cc1)C(=O)NO [Compound 254] | ≤ 0.1 | 0.4 (≈ 0.786 µM) | ≤ 0.1 | ≤ 0.1 | 0.8 (≈ 1.57 µM) | 1.6 (≈ 3.15 µM) | 0.8 (≈ 1.57 µM) | 0.2 (≈ 0.393 µM) | 1.6 (≈ 3.15 µM) | 0.8 (≈ 1.57 µM)
CSC(C)(C)[C@H](NC(=O)c1ccc(C#Cc2ccc(CNCC#N)cc2)cc1)C(=O)NO [Compound 246] | 0.2 (≈ 0.444 µM) | 0.2 (≈ 0.444 µM) | ≤ 0.1 | ≤ 0.1 | 0.8 (≈ 1.78 µM) | 0.8 (≈ 1.78 µM) | 0.4 (≈ 0.888 µM) | ≤ 0.1 | 0.8 (≈ 1.78 µM) | 0.4 (≈ 0.888 µM)
CC(C)(O)[C@H](NC(=O)c1ccc(C#Cc2ccc(CNCc3ccccc3)cc2)cc1)C(=O)NO [Compound 223] | ≤ 0.1 | ≤ 0.1 | ≤ 0.1 | ≤ 0.1 | 0.4 (≈ 0.848 µM) | 0.4 (≈ 0.848 µM) | 0.8 (≈ 1.7 µM) | ≤ 0.1 | 0.8 (≈ 1.7 µM) | 0.4 (≈ 0.848 µM)
CSC(C)(C)[C@H](NC(=O)c1ccc(C#Cc2ccc(CNCc3ccccn3)s2)cc1)C(=O)NO [Compound 307] | 0.4 (≈ 0.786 µM) | 0.4 (≈ 0.786 µM) | 0.8 (≈ 1.57 µM) | ≤ 0.1 | 0.8 (≈ 1.57 µM) | 0.8 (≈ 1.57 µM) | 0.8 (≈ 1.57 µM) | ≤ 0.1 | 1.6 (≈ 3.15 µM) | 1.6 (≈ 3.15 µM)
CC(C)(O)[C@H](NC(=O)c1ccc(C#Cc2ccc(CNCc3ncccn3)s2)cc1)C(=O)NO [Compound 360] | 0.4 (≈ 0.834 µM) | 1.6 (≈ 3.34 µM) | 0.4 (≈ 0.834 µM) | ≤ 0.1 | 1.6 (≈ 3.34 µM) | 1.6 (≈ 3.34 µM) | 0.8 (≈ 1.67 µM) | 0.8 (≈ 1.67 µM) | 6.3 (≈ 13.1 µM) | 6.3 (≈ 13.1 µM)

More lines, main results first:

MIC PM 12080 [2] [µg/mL] | MIC PM 6391 [4] [µg/mL] | MIC PM 6267 [6] [µg/mL] | MIC PM 10775 [10] [µg/mL] | Structure (SMILES) | MIC MH 13065 [1] [µg/mL] | MIC MH 6374 [3] [µg/mL] | MIC MH 6357 [5] [µg/mL] | MIC MH 10720 [7] [µg/mL] | MIC MH 12587 [8] [µg/mL] | MIC MH 13093 [9] [µg/mL]
0.2 (≈ 0.421 µM) | 0.8 (≈ 1.68 µM) | 0.2 (≈ 0.421 µM) | ≤ 0.1 | CC[C@H](C)[C@H](NC(=O)c1ccc(C#Cc2ccc(CNCc3cccs3)cc2)cc1)C(=O)NO [Compound 182] | 0.8 (≈ 1.68 µM) | 1.6 (≈ 3.36 µM) | 0.4 (≈ 0.841 µM) | 0.2 (≈ 0.421 µM) | 1.6 (≈ 3.36 µM) | 0.8 (≈ 1.68 µM)
0.8 (≈ 1.82 µM) | 0.8 (≈ 1.82 µM) | 1.6 (≈ 3.63 µM) | ≤ 0.1 | COCCNCc1ccc(C#Cc2ccc(C(=O)N[C@H](C(=O)NO)C(C)(C)O)cc2)cn1 [Compound 325] | 1.6 (≈ 3.63 µM) | 1.6 (≈ 3.63 µM) | 0.8 (≈ 1.82 µM) | 0.4 (≈ 0.908 µM) | 3.1 (≈ 7.04 µM) | 3.1 (≈ 7.04 µM)
0.4 (≈ 0.748 µM) | 0.8 (≈ 1.5 µM) | 0.4 (≈ 0.748 µM) | ≤ 0.1 | CC(C)(C(NC(=O)c1ccc(C#Cc2ccc(CNCc3ccc(Cl)cc3)cc2)cc1)C(=O)NO)[N+](=O)[O-] (stereo not shown) [Compound 277] | 1.6 (≈ 2.99 µM) | 1.6 (≈ 2.99 µM) | 1.6 (≈ 2.99 µM) | 0.4 (≈ 0.748 µM) | 3.1 (≈ 5.79 µM) | 1.6 (≈ 2.99 µM)
≤ 0.1 | ≤ 0.1 | ≤ 0.1 | ≤ 0.1 | CC(C)(O)C(NC(=O)c1ccc(C#Cc2ccc(CNCc3cccs3)cc2)cc1)C(=O)NO (stereo not shown) [Compound 232] | ≤ 0.1 | ≤ 0.1 | 0.4 (≈ 0.838 µM) | ≤ 0.1 | 0.4 (≈ 0.838 µM) | 0.2 (≈ 0.419 µM)
0.2 (≈ 0.399 µM) | 0.4 (≈ 0.798 µM) | 0.8 (≈ 1.6 µM) | 0.4 (≈ 0.798 µM) | CC(C)(C(NC(=O)c1ccc(C#Cc2ccc(CNCc3ccccn3)cc2)cc1)C(=O)NO)[N+](=O)[O-] (stereo not shown) [Compound 282] | 0.4 (≈ 0.798 µM) | 0.8 (≈ 1.6 µM) | 0.8 (≈ 1.6 µM) | ≤ 0.1 | 1.6 (≈ 3.19 µM) | 1.6 (≈ 3.19 µM)
≤ 0.1 | ≤ 0.1 | 1.6 (≈ 3.37 µM) | 0.4 (≈ 0.843 µM) | CON=C(C)[C@H](NC(=O)c1ccc(C#Cc2ccc(CNCc3ccco3)cc2)cc1)C(=O)NO [Compound 391] | 0.4 (≈ 0.843 µM) | 0.4 (≈ 0.843 µM) | 0.4 (≈ 0.843 µM) | 0.4 (≈ 0.843 µM) | ≤ 0.1 | 0.4 (≈ 0.843 µM)
0.4 (≈ 0.829 µM) | 0.8 (≈ 1.66 µM) | 3.1 (≈ 6.42 µM) | ≤ 0.1 | CSC(C)(C)C(NC(=O)c1ccc(C#Cc2ccc(CN3CCOCC3)nc2)cc1)C(=O)NO (stereo not shown) [Compound 338] | 3.1 (≈ 6.42 µM) | 6.3 (≈ 13.1 µM) | 3.1 (≈ 6.42 µM) | 0.8 (≈ 1.66 µM) | 6.3 (≈ 13.1 µM) | 6.3 (≈ 13.1 µM)
≤ 0.1 | 0.4 (≈ 0.936 µM) | 0.8 (≈ 1.87 µM) | ≤ 0.1 | C=CCNCc1ccc(C#Cc2ccc(C(=O)N[C@H](C(=O)NO)C(C)(C)O)cc2)s1 [Compound 291] | 0.4 (≈ 0.936 µM) | ≤ 0.1 | ≤ 0.1 | ≤ 0.1 | 0.8 (≈ 1.87 µM) | 0.4 (≈ 0.936 µM)
0.4 (≈ 0.812 µM) | 0.8 (≈ 1.62 µM) | 0.8 (≈ 1.62 µM) | ≤ 0.1 | CSC(C)(C)[C@H](NC(=O)c1ccc(C#Cc2ccc(CNCc3ccco3)nc2)cc1)C(=O)NO [Compound 344] | 0.8 (≈ 1.62 µM) | 0.8 (≈ 1.62 µM) | 0.4 (≈ 0.812 µM) | ≤ 0.1 | 1.6 (≈ 3.25 µM) | 1.6 (≈ 3.25 µM)
0.2 (≈ 0.473 µM) | 0.4 (≈ 0.947 µM) | 0.4 (≈ 0.947 µM) | ≤ 0.1 | C=CCNCc1ccc(C#Cc2ccc(C(=O)N[C@H](C(=O)NO)C(C)(C)O)cc2)cn1 [Compound 361] | 1.6 (≈ 3.79 µM) | 0.8 (≈ 1.89 µM) | 3.1 (≈ 7.34 µM) | 0.4 (≈ 0.947 µM) | 3.1 (≈ 7.34 µM) | 3.1 (≈ 7.34 µM)
3.1 (≈ 7.61 µM) | 0.2 (≈ 0.491 µM) | 25 (≈ 61.4 µM) | 3.1 (≈ 7.61 µM) | CCCNCc1ccc(C#Cc2ccc(C(=O)N[C@@H](C(C)=O)C(=O)NO)cc2)cc1 [Compound 406] | 25 (≈ 61.4 µM) | 25 (≈ 61.4 µM) | 12.5 (≈ 30.7 µM) | 6.3 (≈ 15.5 µM) | 1.6 (≈ 3.93 µM) | 12.5 (≈ 30.7 µM)
0.8 (≈ 2.11 µM) | 0.8 (≈ 2.11 µM) | 0.2 (≈ 0.527 µM) | ≤ 0.1 | CNCc1ccc(C#Cc2ccc(C(=O)N[C@H](C(=O)NO)C(C)C)cc2)cc1 [Compound 207] | 6.3 (≈ 16.6 µM) | 12.5 (≈ 32.9 µM) | 12.5 (≈ 32.9 µM) | 3.1 (≈ 8.17 µM) | 12.5 (≈ 32.9 µM) | 12.5 (≈ 32.9 µM)
0.4 (≈ 0.836 µM) | 0.2 (≈ 0.418 µM) | 6.3 (≈ 13.2 µM) | 0.8 (≈ 1.67 µM) | CON=C(C)[C@H](NC(=O)c1ccc(C#Cc2ccc(CNCC3CCCO3)cc2)cc1)C(=O)NO (stereo partly shown) [Compound 394] | 3.1 (≈ 6.48 µM) | 6.3 (≈ 13.2 µM) | 3.1 (≈ 6.48 µM) | 1.6 (≈ 3.34 µM) | 0.8 (≈ 1.67 µM) | 3.1 (≈ 6.48 µM)
